Assay results from PMC12621043, “Un-LOK-ing a New Approach for Conformational Selective Targeting of STK10 (LOK)” (ACS Medicinal Chemistry Letters, 2025).

target: T1, CDK2A (Homo sapiens, UniProt P24941); assay: DSF Tm panel; type: binding; details: 10 μM compound
T1 construct: purchased in-house DSF kinase panel (SGC-style construct names; the trailing letter is the construct ID)

Row | Compound | ΔTm at 10 µM [°C]
1 | Cc1ccc(F)cc1CNC(=O)Nc1ccc2cc1OCCOCCNc1ccn3ncc-2c3n1 [compound 26] | 2.3
2 | O=C(NCc1ccccc1C(F)(F)F)Nc1ccc2cc1OCCOCCNc1ccn3ncc-2c3n1 [compound 27] | 1.9
3 | O=C(NCc1ccc(C(F)(F)F)cc1)Nc1ccc2cc1OCCOCCNc1ccn3ncc-2c3n1 [compound 28] | 3.3
4 | COc1ccccc1CNC(=O)Nc1ccc2cc1OCCOCCNc1ccn3ncc-2c3n1 [compound 29] | 1.7

target: T2, EPHB3A (Homo sapiens, UniProt P54753); assay: DSF Tm panel; type: binding; details: 10 μM compound
T2 construct: purchased in-house DSF kinase panel (SGC-style construct names; the trailing letter is the construct ID)
T2 sequence (P54753 34-998): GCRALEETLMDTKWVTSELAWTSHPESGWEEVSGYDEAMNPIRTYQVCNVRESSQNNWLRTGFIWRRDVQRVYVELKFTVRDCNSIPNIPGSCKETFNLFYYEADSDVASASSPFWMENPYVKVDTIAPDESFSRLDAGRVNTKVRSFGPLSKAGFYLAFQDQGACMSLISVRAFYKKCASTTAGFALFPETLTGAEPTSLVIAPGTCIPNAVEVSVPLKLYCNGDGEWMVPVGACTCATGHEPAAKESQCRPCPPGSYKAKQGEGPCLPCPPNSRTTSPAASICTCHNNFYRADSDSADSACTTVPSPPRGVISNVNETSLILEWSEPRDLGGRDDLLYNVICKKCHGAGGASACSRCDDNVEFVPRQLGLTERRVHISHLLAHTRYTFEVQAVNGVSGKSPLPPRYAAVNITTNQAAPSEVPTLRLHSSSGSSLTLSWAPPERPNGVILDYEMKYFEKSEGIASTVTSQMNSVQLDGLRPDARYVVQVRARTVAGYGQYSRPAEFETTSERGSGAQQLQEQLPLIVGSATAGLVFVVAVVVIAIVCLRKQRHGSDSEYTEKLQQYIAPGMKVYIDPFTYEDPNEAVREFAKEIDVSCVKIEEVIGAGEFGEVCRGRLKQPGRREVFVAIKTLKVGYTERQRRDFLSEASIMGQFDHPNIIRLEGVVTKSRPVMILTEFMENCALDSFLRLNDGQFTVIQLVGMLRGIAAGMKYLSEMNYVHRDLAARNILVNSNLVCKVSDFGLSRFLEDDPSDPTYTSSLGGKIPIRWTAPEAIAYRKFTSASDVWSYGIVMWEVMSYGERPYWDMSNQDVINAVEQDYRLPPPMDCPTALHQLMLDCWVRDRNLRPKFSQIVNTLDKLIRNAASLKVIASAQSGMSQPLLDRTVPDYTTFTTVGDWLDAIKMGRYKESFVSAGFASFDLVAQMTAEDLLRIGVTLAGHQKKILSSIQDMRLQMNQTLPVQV

Row | Compound | ΔTm at 10 µM [°C]
5 | Cc1ccc(F)cc1CNC(=O)Nc1ccc2cc1OCCOCCNc1ccn3ncc-2c3n1 [compound 26] | 0.9
6 | O=C(NCc1ccccc1C(F)(F)F)Nc1ccc2cc1OCCOCCNc1ccn3ncc-2c3n1 [compound 27] | 1.4
7 | O=C(NCc1ccc(C(F)(F)F)cc1)Nc1ccc2cc1OCCOCCNc1ccn3ncc-2c3n1 [compound 28] | 1.4
8 | COc1ccccc1CNC(=O)Nc1ccc2cc1OCCOCCNc1ccn3ncc-2c3n1 [compound 29] | 0.4

target: T3, CASKA (Homo sapiens, UniProt O14936); assay: DSF Tm panel; type: binding; details: 10 μM compound
T3 construct: purchased in-house DSF kinase panel (SGC-style construct names; the trailing letter is the construct ID)
T3 sequence (O14936 12-276): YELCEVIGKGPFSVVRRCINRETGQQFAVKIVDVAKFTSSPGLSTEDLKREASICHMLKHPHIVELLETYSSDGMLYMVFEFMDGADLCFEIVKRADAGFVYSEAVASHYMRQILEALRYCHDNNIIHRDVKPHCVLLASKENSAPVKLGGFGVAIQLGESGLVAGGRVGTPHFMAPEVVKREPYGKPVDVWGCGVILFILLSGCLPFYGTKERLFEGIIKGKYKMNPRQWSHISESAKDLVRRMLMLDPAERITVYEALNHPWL

Row | Compound | ΔTm at 10 µM [°C]
9 | Cc1ccc(F)cc1CNC(=O)Nc1ccc2cc1OCCOCCNc1ccn3ncc-2c3n1 [compound 26] | 1.2
10 | O=C(NCc1ccccc1C(F)(F)F)Nc1ccc2cc1OCCOCCNc1ccn3ncc-2c3n1 [compound 27] | 1.6
11 | O=C(NCc1ccc(C(F)(F)F)cc1)Nc1ccc2cc1OCCOCCNc1ccn3ncc-2c3n1 [compound 28] | 0.5
12 | COc1ccccc1CNC(=O)Nc1ccc2cc1OCCOCCNc1ccn3ncc-2c3n1 [compound 29] | 1.1

target: T4, STK39A (Homo sapiens, UniProt Q9UEW8); assay: DSF Tm panel; type: binding; details: 10 μM compound
T4 construct: purchased in-house DSF kinase panel (SGC-style construct names; the trailing letter is the construct ID)

Row | Compound | ΔTm at 10 µM [°C]
13 | Cc1ccc(F)cc1CNC(=O)Nc1ccc2cc1OCCOCCNc1ccn3ncc-2c3n1 [compound 26] | 0.9
14 | O=C(NCc1ccccc1C(F)(F)F)Nc1ccc2cc1OCCOCCNc1ccn3ncc-2c3n1 [compound 27] | 1.5
15 | O=C(NCc1ccc(C(F)(F)F)cc1)Nc1ccc2cc1OCCOCCNc1ccn3ncc-2c3n1 [compound 28] | 1.3
16 | COc1ccccc1CNC(=O)Nc1ccc2cc1OCCOCCNc1ccn3ncc-2c3n1 [compound 29] | 0.8

target: T5, STK17BA (Homo sapiens, UniProt O94768); assay: DSF Tm panel; type: binding; details: 10 μM compound
T5 construct: purchased in-house DSF kinase panel (SGC-style construct names; the trailing letter is the construct ID)
T5 sequence (O94768 25-329): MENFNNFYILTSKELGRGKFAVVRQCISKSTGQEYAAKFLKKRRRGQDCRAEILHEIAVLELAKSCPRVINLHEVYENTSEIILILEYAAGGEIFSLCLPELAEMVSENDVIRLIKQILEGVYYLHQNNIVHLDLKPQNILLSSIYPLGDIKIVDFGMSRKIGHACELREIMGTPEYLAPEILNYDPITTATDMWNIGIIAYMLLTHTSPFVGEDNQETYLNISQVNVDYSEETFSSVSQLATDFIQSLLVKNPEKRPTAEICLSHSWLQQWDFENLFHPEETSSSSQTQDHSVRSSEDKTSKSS

Row | Compound | ΔTm at 10 µM [°C]
17 | Cc1ccc(F)cc1CNC(=O)Nc1ccc2cc1OCCOCCNc1ccn3ncc-2c3n1 [compound 26] | 3.1
18 | O=C(NCc1ccccc1C(F)(F)F)Nc1ccc2cc1OCCOCCNc1ccn3ncc-2c3n1 [compound 27] | 5.1
19 | O=C(NCc1ccc(C(F)(F)F)cc1)Nc1ccc2cc1OCCOCCNc1ccn3ncc-2c3n1 [compound 28] | 4.8
20 | COc1ccccc1CNC(=O)Nc1ccc2cc1OCCOCCNc1ccn3ncc-2c3n1 [compound 29] | 1.7

target: T6, FGFR2A (Homo sapiens, UniProt P21802); assay: DSF Tm panel; type: binding; details: 10 μM compound
T6 construct: purchased in-house DSF kinase panel (SGC-style construct names; the trailing letter is the construct ID)
T6 sequence (P21802 458-770): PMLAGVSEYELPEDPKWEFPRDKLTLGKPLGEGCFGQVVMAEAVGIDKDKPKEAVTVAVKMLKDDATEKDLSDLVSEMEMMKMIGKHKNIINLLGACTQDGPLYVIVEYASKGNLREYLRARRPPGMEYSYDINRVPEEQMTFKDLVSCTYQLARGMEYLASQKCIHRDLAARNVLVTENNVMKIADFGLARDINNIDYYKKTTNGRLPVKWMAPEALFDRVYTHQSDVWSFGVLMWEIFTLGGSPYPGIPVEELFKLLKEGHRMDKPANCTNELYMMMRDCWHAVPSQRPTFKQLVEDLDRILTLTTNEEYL

Row | Compound | ΔTm at 10 µM [°C]
21 | Cc1ccc(F)cc1CNC(=O)Nc1ccc2cc1OCCOCCNc1ccn3ncc-2c3n1 [compound 26] | 3.5
22 | O=C(NCc1ccccc1C(F)(F)F)Nc1ccc2cc1OCCOCCNc1ccn3ncc-2c3n1 [compound 27] | 2.7
23 | O=C(NCc1ccc(C(F)(F)F)cc1)Nc1ccc2cc1OCCOCCNc1ccn3ncc-2c3n1 [compound 28] | 2.3
24 | COc1ccccc1CNC(=O)Nc1ccc2cc1OCCOCCNc1ccn3ncc-2c3n1 [compound 29] | 2.9

target: T7, DCAMKL1A (Homo sapiens, UniProt O15075); assay: DSF Tm panel; type: binding; details: 10 μM compound
T7 construct: purchased in-house DSF kinase panel (SGC-style construct names; the trailing letter is the construct ID)
T7 sequence (O15075 372-649): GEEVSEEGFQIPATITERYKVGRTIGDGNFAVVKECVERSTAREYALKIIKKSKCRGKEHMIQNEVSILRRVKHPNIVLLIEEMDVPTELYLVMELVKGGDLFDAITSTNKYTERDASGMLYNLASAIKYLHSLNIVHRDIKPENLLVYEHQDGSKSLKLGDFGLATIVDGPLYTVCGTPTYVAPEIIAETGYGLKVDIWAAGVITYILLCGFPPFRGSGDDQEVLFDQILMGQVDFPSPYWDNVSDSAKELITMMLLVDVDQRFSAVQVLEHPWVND

Row | Compound | ΔTm at 10 µM [°C]
25 | Cc1ccc(F)cc1CNC(=O)Nc1ccc2cc1OCCOCCNc1ccn3ncc-2c3n1 [compound 26] | 1.6
26 | O=C(NCc1ccccc1C(F)(F)F)Nc1ccc2cc1OCCOCCNc1ccn3ncc-2c3n1 [compound 27] | 2.3
27 | O=C(NCc1ccc(C(F)(F)F)cc1)Nc1ccc2cc1OCCOCCNc1ccn3ncc-2c3n1 [compound 28] | 2.7
28 | COc1ccccc1CNC(=O)Nc1ccc2cc1OCCOCCNc1ccn3ncc-2c3n1 [compound 29] | 0.9

target: T8, MAP2K1A (Homo sapiens, UniProt Q02750); assay: DSF Tm panel; type: binding; details: 10 μM compound
T8 construct: purchased in-house DSF kinase panel (SGC-style construct names; the trailing letter is the construct ID)
T8 sequence (Q02750 68-361): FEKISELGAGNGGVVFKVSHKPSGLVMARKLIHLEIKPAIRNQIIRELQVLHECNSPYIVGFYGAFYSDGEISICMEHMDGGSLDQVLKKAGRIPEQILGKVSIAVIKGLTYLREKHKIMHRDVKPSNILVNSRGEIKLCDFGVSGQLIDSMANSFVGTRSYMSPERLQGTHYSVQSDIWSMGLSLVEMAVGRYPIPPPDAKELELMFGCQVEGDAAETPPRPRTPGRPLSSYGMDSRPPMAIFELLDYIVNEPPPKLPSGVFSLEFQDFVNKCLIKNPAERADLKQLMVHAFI
Method: The synthesized urea-based derivatives were evaluated in a panel of kinases by differential scanning fluorescence (DSF) to investigate their selectivity profile. A positive ΔT m in the DSF assay indicates stabilization of the protein upon ligand binding in comparison to its apo state, with higher thermal shifts generally correlating with stronger binding. For this purpose, we used our internal kinase selectivity panel (∼90 kinases) along with staurosporine as a positive control. […] This was also reflected in the overall low selectivity score (S) throughout the series, which is determined by the ratio between the number of kinases that are stabilized above 5 °C and the total number of kinases tested (Figure ). Motivated by these findings, we further validated the entire series by orthogonal binding and activity assays to determine the in vitro and cellular potency and selectivity of the developed series in comparison to the selected reference compounds. […]
was performed as previously described.[1,2] Briefly, recombinant protein kinase domains at a concentration of 2 μM were mixed with 10 μM compound in a buffer containing 20 mM HEPES, […]
probe (1 µl per mL). Subsequently, temperature-dependent protein unfolding profiles were […]
emission filters were set to 465 nm and 590 nm, respectively. The temperature was raised with a step rate of 3 °C per minute. […]
inflection point of the transition curve. […]
previously.[3] In brief, STK10, STK3, STK4 and SLK were obtained as plasmids cloned in […]
Plasmids were transfected into
KD concentration taken from TracerDB (tracerdb.org)[4] were pipetted into white 384-well

Row | Compound | ΔTm at 10 µM [°C]
29 | Cc1ccc(F)cc1CNC(=O)Nc1ccc2cc1OCCOCCNc1ccn3ncc-2c3n1 [compound 26] | 0.3
30 | O=C(NCc1ccccc1C(F)(F)F)Nc1ccc2cc1OCCOCCNc1ccn3ncc-2c3n1 [compound 27] | 0.7
31 | O=C(NCc1ccc(C(F)(F)F)cc1)Nc1ccc2cc1OCCOCCNc1ccn3ncc-2c3n1 [compound 28] | 1
32 | COc1ccccc1CNC(=O)Nc1ccc2cc1OCCOCCNc1ccn3ncc-2c3n1 [compound 29] | 0.6

target: SLK (Homo sapiens, UniProt Q9H2G2); assay: DSF Tm panel; type: binding; set-up: purchased in-house DSF kinase panel (SGC-style construct names; the trailing letter is the construct ID); details: 10 μM compound

Row | Compound | ΔTm at 10 µM [°C]
33 | Cc1ccc(F)cc1CNC(=O)Nc1ccc2cc1OCCOCCNc1ccn3ncc-2c3n1 [compound 26] | 3.2
34 | O=C(NCc1ccccc1C(F)(F)F)Nc1ccc2cc1OCCOCCNc1ccn3ncc-2c3n1 [compound 27] | 4.2
35 | O=C(NCc1ccc(C(F)(F)F)cc1)Nc1ccc2cc1OCCOCCNc1ccn3ncc-2c3n1 [compound 28] | 3.1
36 | COc1ccccc1CNC(=O)Nc1ccc2cc1OCCOCCNc1ccn3ncc-2c3n1 [compound 29] | 2.5
